The source of these data is patent US6541503B2, “Substituted oxindole derivatives as protein tyrosine kinase and as protein serine/threonine kinase inhibitors” (SmithKline Beecham Corporation, priority 1997, dated 2003).

Each structure is given as a SMILES string. Read-outs that look alike come from different tables or passages of the source.

One assay addresses CDK1 (Homo sapiens, UniProt P06493). The experiment in a line: Cyclin dependent protein kinase substrate phosphorylation assay, CDK1. Format: biochemical. The protocol:
Cyclin dependent protein kinase assays utilized the peptides Biotin-aminohexyl-[…] and Biotin-aminohexyl-[…]-NH2 as phosphoryl group acceptors. CDK1 and CDK2 were both expressed utilizing a baculovirus expression system and were partially purified to comprise 20-80% of total protein, with no detectable competing reactions present. Typically, assays were performed by incubating either enzyme (0.2-10 nM), with and without inhibitor, one of the two peptide substrates ([…]), [γ-^32P]ATP ([…]), and 10-20 mM Mg^2+ for periods of time generally within the range 10-120 min. Reactions were terminated with 0.2-2 volumes of either 20% acetic acid or 50-100 mM EDTA buffered to pH 7 (substrate consumption<20%). The buffer employed in enzyme assays was either 30 mM HEPES 7.4 containing 0.15 M NaCl and 5% DMSO, the buffer 50 mM MOPS 7.0 containing 0.15 M NaCl and 5% DMSO, or the buffer 100 mM HEPES pH 7.5 containing 0.1 mg /mL BSA and 5% DMSO. Inhibitors were diluted in 100% DMSO prior to addition into the assay. Detection of peptide phosphorylation was accomplished by scintillation counting following either collection of peptide onto phosphocellulose filters (for reactions stopped with acetic acid), collection of peptide in wells of 96 well plates coated with Streptavidin (Pierce) (reactions were stopped with EDTA), or addition of Avidin coated Scintillant impregnated beads (Scintillation Proximity Assays from Amersham, reactions were stopped with EDTA).

The next assay has as its target Lck (Homo sapiens, UniProt P06239). Briefly: Lck peptide phosphorylation assay (Elisa or isotope based). The assay is classed as biochemical.
A further assay deals with MDA MB468. The experiment in a line: MTT assay, MDA MB468. The assay is classed as cell-based, human. The protocol:
Compounds are tested for their ability to inhibit cell proliferation and cell viability. The metabolic conversion of 3-(4,5-dimethylthiazol-2-yl)-2,5-diphenyltetrazolium bromide (MTT, Sigma #M2128) to a reduced form is a commonly used measure of cellular viability. Following is the procedure:
Cells are maintained in 75 cm^2 tissue culture flasks until ready for use. The cells are grown and plated for the assay in Dulbecco's modified Eagle's media (DMEM) containing 10% fetal bovine serum. For example, the following cell lines can be used: a) human foreskin fibroblasts (HFF); b) HT29 (human colon carcinoma cell line); c)MDA-MB-468 (human breast carcinoma cell line); d) RKO (human colon adenocarcinoma cell line); e) SW620 (human colon carcinoma cell line); f) A549 (human lung carcinoma cell line); and g) MIA PACA (human pancreatic carcinoma cell line). Cells are maintained at 37° C. in 10% CO2, 90% humidified air. Cells are plated in 96-well tissue culture plates at the densities listed below. 100 μL of cell suspension is added to each well of the 96-well plate except the top row of the plate which contains no cells and serves as a reference for the spectrophotometer.
Cells are incubated overnight in DMEM containing 10% fetal bovine serum at 37° C. in 10% CO2, 90% humidified air prior to dosing. […] Compounds with solubilities of less than 30 μM are dosed at the highest soluble concentration. Stock solutions of compounds are made in 100% dimethyl sulfoxide (DMSO). Stock solutions are diluted in DMEM containing 100 μg/ml gentamicin and 0.3 to 0.6% DMSO at the twice the highest concentration to be placed on the cells. If compounds have been dissolved in DMSO the final concentration of DMSO on the cells is kept below 0.3%. Three-fold serial dilutions are performed on each compound to prepare 10 concentrations of the compound for dosing. 100 μl of diluted compound is added to the 100 μl of media currently on the dish. For each concentration of compound, 2-4 replicate wells are prepared.
Cells are returned to incubator and allowed to proliferate in the presence of compound for 72 h before addition of MTT. MTT is prepared in phosphate buffered saline (Irvine Scientific #9240) at a concentration of 2 mg/ml. 50 μl per well of MTT solution is added to the 200 μl of media to yield a final concentration of 0.4 mg/ml and plates are returned to the incubator for 4 h. After 4 h incubation the media, compound and MTT mixture is aspirated from the plates and 100 μl of 100% DMSO is added to each well in addition to 25 μl of Sorenson's Buffer (0.1M glycine, 0.1M NaCl, pH 10.5). Quantitation of metabolic reduction of MTT in each plate is performed by reading optical density at 570 nm wavelength on a Molecular Devices UVmax microplate reader. Growth inhibition curves and 50% inhibitory concentrations are determined using Microsoft Excel.

Another assay addresses T1, UL97 (Human cytomegalovirus, UniProt P16788).
T1 construct: GST; made in house; host or cells: baculovirus vector in Sf9 cells
The experiment in a line: UL97 protein kinase assay, 32P transfer from ATP to histone H2B. Format: biochemical. On the procedure: UL97 was produced as a GST fusion protein from a baculovirus vector expressed in sf9 cells as described by He (He, et al., Journal of Virology 1997, 71, 405-11). UL97 was assayed as a protein kinase using ^32P transfer from ATP to histone H2B with detection of radiolabeled histone bound to phosphocellulose. Assay mixes for testing inhibitors of UL97 activity contained 2 mM [γ^32P]-ATP, 15 mM histone H2B, 50 mM sodiumCHES, pH 9.5, 1 M NaCl, 2 mM dithiothreitol and 10 mM MgCl2. Inhibitors were dissolved in diluted DMSO to give a final DMSO concentration in the reaction of 1% DMSO. After incubation at 20° C., the reactions were terminated by addition of 10 volumes of 75 mM phosphoric acid, 30 mM ATP, 1 mM EDTA, then were spotted onto phosphocellulose filters and washed four times with 75 mM phosphoric acid. Radioactivity was determined by liquid scintillation counting.

Setting [1] is: Homo sapiens, MDA-MB-468, 72 h; read-out: MTT MDA MB468 IC50.

Chain of CDK1 (P06493 whole entry, species assumed): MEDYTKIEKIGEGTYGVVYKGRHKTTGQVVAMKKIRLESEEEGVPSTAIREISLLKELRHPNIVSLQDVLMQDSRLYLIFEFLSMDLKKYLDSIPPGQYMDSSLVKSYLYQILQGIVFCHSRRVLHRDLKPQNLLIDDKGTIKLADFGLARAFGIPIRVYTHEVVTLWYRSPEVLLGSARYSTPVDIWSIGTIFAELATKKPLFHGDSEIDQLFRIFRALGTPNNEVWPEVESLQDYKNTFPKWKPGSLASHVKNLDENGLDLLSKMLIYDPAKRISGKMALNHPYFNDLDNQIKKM
Chain of CDK1 (P14635 whole entry partner, species assumed): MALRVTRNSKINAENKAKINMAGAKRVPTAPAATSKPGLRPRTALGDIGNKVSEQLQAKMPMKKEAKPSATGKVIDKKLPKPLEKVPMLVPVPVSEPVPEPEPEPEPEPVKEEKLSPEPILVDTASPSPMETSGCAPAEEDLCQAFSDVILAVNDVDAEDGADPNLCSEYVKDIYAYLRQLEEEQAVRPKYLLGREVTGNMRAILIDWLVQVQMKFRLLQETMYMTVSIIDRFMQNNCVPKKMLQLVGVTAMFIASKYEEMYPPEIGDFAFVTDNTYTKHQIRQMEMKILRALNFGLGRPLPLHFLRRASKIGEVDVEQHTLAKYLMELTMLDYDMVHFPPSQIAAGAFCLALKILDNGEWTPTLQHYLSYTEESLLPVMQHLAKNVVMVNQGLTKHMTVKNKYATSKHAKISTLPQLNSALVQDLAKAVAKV
Chain of Lck (P06239 whole entry, species assumed): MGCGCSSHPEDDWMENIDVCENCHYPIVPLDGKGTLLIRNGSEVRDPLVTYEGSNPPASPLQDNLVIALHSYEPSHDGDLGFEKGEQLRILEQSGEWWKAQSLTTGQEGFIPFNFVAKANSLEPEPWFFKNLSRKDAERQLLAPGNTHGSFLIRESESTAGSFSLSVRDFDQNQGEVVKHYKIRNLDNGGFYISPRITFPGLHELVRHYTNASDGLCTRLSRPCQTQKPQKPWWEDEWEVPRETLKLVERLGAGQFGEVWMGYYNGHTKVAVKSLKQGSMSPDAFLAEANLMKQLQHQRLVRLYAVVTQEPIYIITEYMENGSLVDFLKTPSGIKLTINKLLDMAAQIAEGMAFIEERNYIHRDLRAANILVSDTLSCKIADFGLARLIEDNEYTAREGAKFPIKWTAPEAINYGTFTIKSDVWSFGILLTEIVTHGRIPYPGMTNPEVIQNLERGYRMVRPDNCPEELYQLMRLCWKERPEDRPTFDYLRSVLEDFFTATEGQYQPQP
T1 sequence (P16788 whole entry): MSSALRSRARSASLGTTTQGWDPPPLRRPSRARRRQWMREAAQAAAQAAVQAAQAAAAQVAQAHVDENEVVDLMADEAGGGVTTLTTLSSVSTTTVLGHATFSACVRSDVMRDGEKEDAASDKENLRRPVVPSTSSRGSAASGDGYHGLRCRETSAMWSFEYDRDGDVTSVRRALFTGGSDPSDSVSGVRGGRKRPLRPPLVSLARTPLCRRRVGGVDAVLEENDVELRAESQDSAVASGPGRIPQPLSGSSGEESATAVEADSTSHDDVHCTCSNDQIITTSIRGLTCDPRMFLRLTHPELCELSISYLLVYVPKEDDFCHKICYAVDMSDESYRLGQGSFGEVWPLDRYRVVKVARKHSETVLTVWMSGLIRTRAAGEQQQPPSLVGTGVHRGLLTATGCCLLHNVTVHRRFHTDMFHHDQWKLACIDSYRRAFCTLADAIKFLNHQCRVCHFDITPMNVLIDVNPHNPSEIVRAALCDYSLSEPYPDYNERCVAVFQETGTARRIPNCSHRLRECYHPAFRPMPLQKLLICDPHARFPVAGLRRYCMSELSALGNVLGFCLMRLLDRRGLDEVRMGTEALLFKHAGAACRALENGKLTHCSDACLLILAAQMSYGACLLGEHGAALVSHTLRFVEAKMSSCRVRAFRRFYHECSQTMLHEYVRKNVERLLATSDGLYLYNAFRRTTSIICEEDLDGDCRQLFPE
Protocol for Lck: The src and Ick proteins were purified to homogeneity from a baculovirus expression system and preactivated before adding to assay mixtures. The maximum activation was achieved by incubating concentrated enzyme (10-30 mM) on ice for 40 min in the presence of 1 mM ATP and 10 mM MgCl2 in 100 mM HEPES, pH 7.5. The activated enzyme was diluted to 2 nM into a 50-mL reaction mixture containing 100 mM HEPES, pH 7.5. 5 mM ATP, 10 mM MgCl2, 2 mM peptide, 0.05 mg/mL BSA, and an inhibitor at varying concentrations and with or without 8 mCi/mL [γ-^33P]ATP dependent upon the method of analysis for the extent of reaction. The controls were reactions in the presence (negative controls) or absence (positive controls) of 50 mM EDTA. Reactions were allowed to proceed for 30 min at room temperature and quenched with addition of EDTA to 50 mM in 220 mL. The extent of reactions was analyzed in one of the two ways: an Elisa-based and a radioactive isotope-based. The quenched samples (200 mL) were transferred to a neutravidin coated plate (Perice) and incubated at room temperature for 40 min to allow biotinylated peptide to bind to neutravidin. The unbound peptide and the rest of the solution was washed away using a plate washer. In the Elisa format, a 200 mL HRP-PY20 anti phosphotyrosine antibody conjugate solution was added. After incubation for about 30 min, the plated was washed to remove unbound antibody-HRP conjugate. An Elisa substrate, K-blue (Neogen), was added and the Elisa reaction quenched with Red-stop (Neogen) after 15 min. The plate was read at A625 in a plate reader. In the isotope-based format, the reactions had been performed in the presence of [γ-^33P]ATP. 200 mL Scintiverce DB was added to each well of the plate with bound biotin-peptide. The plate was sealed and counted in a micro-b-counter (Wallac). IC50 values were obtained by fitting raw data to A625 (cpm)=Vmax*(1−([l]/(IC50+[l])))+b, where b is background.

In general, IC50 refers to the concentration that inhibits the measured activity by half. On to `CS(=O)(=O)Cc1ccc(NC=C2C(=O)Nc3ccc4ncsc4c32)cc1` [Example 76, 8-(4-Methylsulfonylmethyl-phenylamino-methylene)-6,8-dihydro-1-thia-3,6-diaza-as-indacen-7-one], for which the IC50 at CDK1 (read-out: CDK1 IC50) is > 100 nM; at Lck, > 100 nM; in the assay with MDA MB468 (setting [1]), > 5000 nM.

In the case of `O=C1Nc2ccc3ncsc3c2C1=CNc1ccc(S(=O)(=O)Nc2ccccn2)cc1` [Example 72, 4-[(7-Oxo-6,7-dihydro-1-thia-3,6-diaza-as-indacen-8-ylidenemethyl)-amino]-N-pyridin-2-yl-benzenesulfonamide], the IC50 at CDK1 is 51 to 100 nM; against UL97, 11 to 50 nM; in the assay on MDA MB468 (Homo sapiens, MDA-MB-468, 72 h, read-out: MTT MDA MB468 IC50), > 5000 nM.

As for `CNS(=O)(=O)Cc1ccc(NN=C2C(=O)Nc3ccc4ncccc4c32)cc1` [Example 68, N-Methyl-C-{4-[N′-(2-oxo-2,3-dihydro-pyrrolo[3,2-f]quinolin-1-ylidene)-hydrazino]-phenyl}-methanesulfonamide], the results for the IC50 at CDK1 (read-out: CDK1 IC50), against Lck and against UL97 were 51 to 100 nM, > 100 nM and 11 to 50 nM, respectively.

As for `CC(C)(CO)CNS(=O)(=O)c1ccc(NC=C2C(=O)Nc3ccc4ncsc4c32)cc1` [Example 77, N-(3-Hydroxy-2,2-dimethyl-propyl)-4-[(7-oxo-6,7-dihydro-1-thia-3,6-diaza-as-indacen-8-ylidenemethyl)-amino]-benzenesulfonamide], the IC50 at CDK1 (read-out: CDK1 IC50) was 1 to 10 nM; on UL97, 1 to 10 nM; in the assay with MDA MB468 (setting [1]), > 5000 nM.

`CNS(=O)(=O)Cc1ccc(NN=C2C(=O)Nc3cc(C)c(O)c(C)c32)cc1` [Example 99]: the IC50 is > 100 nM at CDK1 (read-out: CDK1 IC50), > 100 nM on Lck, 1 to 10 nM against UL97 and 100 to 500 nM in the assay with MDA MB468 (setting [1]).
